These results are taken from US11426367B2, “Methods of treating substance abuse” (Perception Neuroscience, Inc., priority 2018, dated 2022).

The subject of one experiment is patients with depression. To be noted: cited from earlier work.
Experiment [1] concerns morphine withdrawal signs in rats. Put plainly: Naloxone-precipitated withdrawal from subchronic morphine. The experiment is classed as in vivo. The following applies: 10 and 20 mg/kg i.p. before naloxone 1 mg/kg SC, morphine 10 mg/kg SC b.i.d. On the procedure: Forty (40) male Wistar rats served as test subjects in this study. Animals were pair housed with unrestricted access to rodent chow and water (SOP ROD.03.01, SOP ROD.04.01, SOP ROD.18). […] All experimental activity occurring during the animals' light cycle. All animal use procedures were performed in accordance with the principles of the Canadian Council on Animal Care (CCAC).
Forty (40) male Wistar rats were assigned to 5 groups of N=8 rats per group. Group A was dosed with saline vehicle (Sal; subcutaneous (SC) route) twice daily (approx. 08:00±1 h and 18:00±1 h) for 12 days. […] This treatment regimen was designed to induce opioid dependence (Erami et al., 2012). […] On days 9 and 12, rats were tested for naloxone precipitated withdrawal. According to a cross-over design (see Table 4: Treatment Groups), all rats in each group received either acute saline, or naloxone hydrochloride (1 mg/kg; dose volume 2 ml/kg) injection by the SC route, 5 minutes prior to behavioral testing. […] Lofexidine doses are based on literature values (e.g. Shearman et al., 1979). Immediately after vehicle or naloxone injection, rats were transferred to activity chambers for 30 minutes where the animals were visually assessed for somatic signs associated with opioid withdrawal (e.g. writhes, chews, ptosis, WDS, shakes, tremor, penile grooming, body weight change; see Higgins and Sellers, 1994). Simultaneously, the activity pattern (distance travelled, rearing) of each rat was automatically recorded.
Locomotor activity. Spontaneous activity in the rats was measured with the automated Med Associates activity test chamber for 30 minutes with 10-minute time bins. The tracking arena was 17″W×17″L×12″H, sensor bars are secured 1″ above the floor to track distance travelled, and a second set of sensor bars are placed ˜5″ above the floor to measure vertical movement and rearing activity. The parameters set on the tracking software were as follows: resolution—50 milliseconds (ms), box size—4 beams, resting delay—500 ms, and ambulatory trigger—2 (SOP ROD.25). […]

The test system of experiment [2] is tolerance to effects of ethanol. Put plainly: Tolerance to ethanol, grip strength. To be noted: for tolerance to the effect of ethanol on grip strength/body weight (motor-impairment): rats, 3 mg/kg given with ethanol (2.3 and 1.7) on day 1, tested day 2, 30 min post ethanol, 3 mg/kg.

As to `CN[C@]1(c2ccccc2Cl)CCCCC1=O` [S(+)-ketamine], in the experiment on patients with depression (0.25 mg/kg i.v., treatment-resistant patients with MDD, case report, Non Patent Literature 14), the “antidepressant effects compared with RS(+/−)-ketamine (0.5 mg/kg, i.v.)” value is “weaker”. The “effective oral doses in patients with depression” value in the experiment with patients with depression (oral, Non Patent Literatures 15 and 16) was 1.25 mg/kg.
With `CN[C@@]1(c2ccccc2Cl)CCCCC1=O.Cl` [R(−)-ketamine], the “overall morphine withdrawal scores (naloxone-precipitated withdrawal signs)” value is given as “dose-dependently attenuated overall morphine withdrawal scores” in experiment [1] and “significantly attenuated the naloxone-induced withdrawal signs” in experiment [1] (listed as R-ketamine). The “Ethanol Tolerance, dose blocking development of tolerance” value in experiment [2] (grip strength, Present study) is on record as 3 - grip strength mg/kg. In addition, the “tolerance to the effect of ethanol on grip strength/body weight (motor-impairment)” value in experiment [2] was “tolerance was significantly diminished”; in experiment [2] (listed as R-ketamine), “blocked”.
